Measured values taken from PubChem BioAssay AID2060900 (Molecular Pharmacology Branch, DTP, NCI, 2025).
Values belong to the molecule of their own block, whether it stands above or below them.

Test system: 521955-158-R2-J5-PDC complex spheroids, viability
Assay: Anticancer human tumor 521955-158-R2-J5-PDC patient-derived pancreatic carcinoma cell line growth inhibition [RAS]
Settings: for IC50: curve of first compound; for viability, T/C: stronger effect = lower value
Method in brief: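 Multi-cell-type spheroids: tumor cells plus HUVEC endothelial cells and mesenchymal stem cells. RAS-pathway inhibitors were combined with targeted agents, each dosed in half-log steps down from clinical Cmax, or from 10 microM when Cmax was unknown.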
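Further: compound exposure lasted seven days before the viability read.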
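Wherever viability, T/C is given: spheroids also contain HUVEC endothelial cells and mesenchymal stem cells as stroma.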

IC50 (second compound 0.0316 µM): 49.1 nM | IC50 (second compound 0.1 µM): < 31.6 nM | IC50 (second compound 0.316 µM): < 31.6 nM | IC50 (second compound 1 µM): < 31.6 nM | IC50 (second compound 3.16 µM): < 31.6 nM | IC50 (second compound 10 µM): < 31.6 nM
Compound: CC(C)NCC(C(=O)N1CCN(c2ncnc3c2C(C)CC3O)CC1)c1ccc(Cl)cc1 (centres undefined) + C#Cc1c(F)ccc2cc(O)cc(-c3ncc4c(N5CC6CCC(C5)N6)nc(OCC56CCCN5CC(F)C6)nc4c3F)c12
viability, T/C (second compound 0.0316 µM, first compound 0.0316 µM): 55.1% | viability, T/C (second compound 0.0316 µM, first compound 0.1 µM): 40% | viability, T/C (second compound 0.0316 µM, first compound 0.316 µM): 36.9% | viability, T/C (second compound 0.0316 µM, first compound 1 µM): 15.6% | viability, T/C (second compound 0.0316 µM, first compound 3.16 µM): 10.7% | viability, T/C (second compound 0.0316 µM, first compound 10 µM): 10.4% | viability, T/C (second compound 0.1 µM, first compound 0.0316 µM): 45.7% | viability, T/C (second compound 0.1 µM, first compound 0.1 µM): 54.2% | viability, T/C (second compound 0.1 µM, first compound 0.316 µM): 26.8% | viability, T/C (second compound 0.1 µM, first compound 1 µM): 13.4% | viability, T/C (second compound 0.1 µM, first compound 3.16 µM): 8.3% | viability, T/C (second compound 0.1 µM, first compound 10 µM): 8.31% | viability, T/C (second compound 0.316 µM, first compound 0.0316 µM): 43.6% | viability, T/C (second compound 0.316 µM, first compound 0.1 µM): 43.2% | viability, T/C (second compound 0.316 µM, first compound 0.316 µM): 29.1% | viability, T/C (second compound 0.316 µM, first compound 1 µM): 11.7% | viability, T/C (second compound 0.316 µM, first compound 3.16 µM): 7.83% | viability, T/C (second compound 0.316 µM, first compound 10 µM): 6.31% | viability, T/C (second compound 1 µM, first compound 0.0316 µM): 43.8% | viability, T/C (second compound 1 µM, first compound 0.1 µM): 45.2% | viability, T/C (second compound 1 µM, first compound 0.316 µM): 26.9% | viability, T/C (second compound 1 µM, first compound 1 µM): 12.7% | viability, T/C (second compound 1 µM, first compound 3.16 µM): 6.2% | viability, T/C (second compound 1 µM, first compound 10 µM): 4.69% | viability, T/C (second compound 3.16 µM, first compound 0.0316 µM): 43.4% | viability, T/C (second compound 3.16 µM, first compound 0.1 µM): 38.2% | viability, T/C (second compound 3.16 µM, first compound 0.316 µM): 22% | viability, T/C (second compound 3.16 µM, first compound 1 µM): 8.28% | viability, T/C (second compound 3.16 µM, first compound 3.16 µM): 5.14% | viability, T/C (second compound 3.16 µM, first compound 10 µM): 3.32% | viability, T/C (second compound 10 µM, first compound 0.0316 µM): 32.3% | viability, T/C (second compound 10 µM, first compound 0.1 µM): 27% | viability, T/C (second compound 10 µM, first compound 0.316 µM): 15.1% | viability, T/C (second compound 10 µM, first compound 1 µM): 7.44% | viability, T/C (second compound 10 µM, first compound 3.16 µM): 3.67% | viability, T/C (second compound 10 µM, first compound 10 µM): 1.98%

IC50 (second compound 0.000949 µM): < 31.6 nM | IC50 (second compound 0.003 µM): < 31.6 nM | IC50 (second compound 0.00949 µM): < 31.6 nM | IC50 (second compound 0.03 µM): < 31.6 nM | IC50 (second compound 0.0949 µM): < 31.6 nM | IC50 (second compound 0.3 µM): < 31.6 nM
Compound: CC(=O)OC12COC1CC(O)C1(C)C(=O)C(O)C3=C(C)C(OC(=O)C(O)C(NC(=O)OC(C)(C)C)c4ccccc4)CC(O)(C(OC(=O)c4ccccc4)C21)C3(C)C (centres undefined) + CCn1c(-c2cc(N3CCN(C)CC3)cnc2C(C)OC)c2c3cc(ccc31)-c1csc(n1)CC(NC(=O)C1CC1C)C(=O)N1CCCC(N1)C(=O)OCC(C)(C)C2
viability, T/C (second compound 0.000949 µM, first compound 0.0316 µM): 19.7% | viability, T/C (second compound 0.000949 µM, first compound 0.1 µM): 23.3% | viability, T/C (second compound 0.000949 µM, first compound 0.316 µM): 20.3% | viability, T/C (second compound 0.000949 µM, first compound 1 µM): 24.3% | viability, T/C (second compound 0.000949 µM, first compound 3.16 µM): 29.3% | viability, T/C (second compound 0.000949 µM, first compound 10 µM): 30.7% | viability, T/C (second compound 0.003 µM, first compound 0.0316 µM): 25.7% | viability, T/C (second compound 0.003 µM, first compound 0.1 µM): 21.4% | viability, T/C (second compound 0.003 µM, first compound 0.316 µM): 23.5% | viability, T/C (second compound 0.003 µM, first compound 1 µM): 28.9% | viability, T/C (second compound 0.003 µM, first compound 3.16 µM): 23.7% | viability, T/C (second compound 0.003 µM, first compound 10 µM): 26.8% | viability, T/C (second compound 0.00949 µM, first compound 0.0316 µM): 20.8% | viability, T/C (second compound 0.00949 µM, first compound 0.1 µM): 21.7% | viability, T/C (second compound 0.00949 µM, first compound 0.316 µM): 20.4% | viability, T/C (second compound 0.00949 µM, first compound 1 µM): 19.8% | viability, T/C (second compound 0.00949 µM, first compound 3.16 µM): 18.9% | viability, T/C (second compound 0.00949 µM, first compound 10 µM): 16.6% | viability, T/C (second compound 0.03 µM, first compound 0.0316 µM): 12.9% | viability, T/C (second compound 0.03 µM, first compound 0.1 µM): 12.8% | viability, T/C (second compound 0.03 µM, first compound 0.316 µM): 11.8% | viability, T/C (second compound 0.03 µM, first compound 1 µM): 16.9% | viability, T/C (second compound 0.03 µM, first compound 3.16 µM): 12.7% | viability, T/C (second compound 0.03 µM, first compound 10 µM): 9.64% | viability, T/C (second compound 0.0949 µM, first compound 0.0316 µM): 7.98% | viability, T/C (second compound 0.0949 µM, first compound 0.1 µM): 9.42% | viability, T/C (second compound 0.0949 µM, first compound 0.316 µM): 11.9% | viability, T/C (second compound 0.0949 µM, first compound 1 µM): 8.27% | viability, T/C (second compound 0.0949 µM, first compound 3.16 µM): 12.1% | viability, T/C (second compound 0.0949 µM, first compound 10 µM): 7.89% | viability, T/C (second compound 0.3 µM, first compound 0.0316 µM): 7.22% | viability, T/C (second compound 0.3 µM, first compound 0.1 µM): 8.9% | viability, T/C (second compound 0.3 µM, first compound 0.316 µM): 7.91% | viability, T/C (second compound 0.3 µM, first compound 1 µM): 11.6% | viability, T/C (second compound 0.3 µM, first compound 3.16 µM): 10.6% | viability, T/C (second compound 0.3 µM, first compound 10 µM): 7.75%
